These results are taken from patent US9675715B2, “Contrast agent for photoacoustic imaging” (CANON KABUSHIKI KAISHA, priority 2012, dated 2017).

The nature of data set [1]: Hydrodynamic average particle size by dynamic light scattering. The format is physicochemical. The conditions noted are these: DLS-8000. The source says: In this embodiment, the particle size of the particles may be determined by measuring the hydrodynamic average particle size using the dynamic light scattering (DLS) method with a dynamic light scattering spectrophotometer (DLS-8000, manufactured by Otsuka Electronics Co., Ltd).
The ICG-encapsulating micellar particles refer to micellar particles in which ICG is contained in surfactant micelles by a known emulsification technique.

The test system of data set [2] is N87 cell line tumor. As to the kind of experiment: Amount transferred into tumor mass, fluorescence imaging of N87 tumor-bearing mice. The format is in vivo, mouse. The conditions noted are these: 1 day after administration, fluorescence ROI of tumor site, relative to ROI value of ICG.
Protocol: The tumor-bearing mice were prepared by subcutaneously implanting a human gastric cancer cell line (N87) or a human cervical cancer cell line (HeLa) into nude mice. Then 130 nmol of a contrast agent in terms of the amount of the dye was administered into each of the tumor-bearing mice. […] As a comparative example, fluorescence imaging of the tumor-bearing mice was performed 1 day after the administration. Fluorescence imaging was performed with IVIS (registered trademark) Imaging System to measure fluorescence intensity in a region of interest (ROI) of the tumor site.
The tumor accumulation 1 day after the administration was evaluated by fluorescence. The accumulation in ROI of the tumor site was calculated.
Data set [3] deals with sentinel lymph node (mouse popliteal lymph node). As to the kind of experiment: Photoacoustic imaging of sentinel lymph node after subcutaneous plantar administration. The data set is classed as in vivo. The conditions noted are these: photoacoustic imaging 1 day after subcutaneous administration into plantar surface of nude mouse, 130 nmol dye. The method, then: (§1) A commercially available photoacoustic imaging apparatus (Nexus128, manufactured by Endra Inc.) was used. Photoacoustic signals were measured at predetermined timings before and after the administration of a prepared contrast agent for PAI, and three-dimensional reconstruction data was acquired for each timing. The photoacoustic signal intensity in a region of interest (ROI) was measured on the basis of the resulting three-dimensional reconstruction data using software (GEHC MICROVIEW, GE Healthcare) or the like.

The test system is the same in data set [4]. As to the kind of experiment: Accumulation in sentinel lymph node, absorbance of lymph node extracts. The format is in vivo. The note with it: 1 day after administration, 10 nmol dye, accumulation of ICG defined as 1.
Protocol: In examples of the present invention, the transfer of the contrast agent for PAI into a sentinel lymph node (SLN) was evaluated by the use of a mouse popliteal lymph node. Ten microliters of the contrast agent was administered subcutaneously into the plantar surface of a nude mouse.
As a comparative example, mouse popliteal lymph nodes were removed 1 day after the administration of various contrast agents, homogenized, and extracted. The resulting extracts were subjected to absorbance measurement.
Accumulation rates were each calculated on the basis of the following formula: Accumulation rate={(absorbance of removed mouse popliteal lymph node)/(absorbance corresponding to amount of sample administered)}×100
After the calculation of the accumulation, the accumulation ratios of various materials were calculated when the accumulation 1 day after the administration of ICG was defined as 1.
According to “Evaluation example of accumulation in sentinel lymph node”, the accumulation in a sentinel lymph node was evaluated. In this example, 10 nmol of the contrast agent in terms of the amount of the dye was administered to a mouse.
Data set [5] in a line: Accumulation of contrast agent in Colon 26 tumor, dye extraction and fluorescence. The data set is classed as in vivo. The conditions noted are these: BALB/c Slc-nu/nu, mouse, intravenous, 13 nmol in terms of ICG. The method, then:
(§2) Tumor model mice were prepared by subcutaneously implanting Colon 26 cells into BALB/c Slc-nu/nu mice.
(§3) Tumor model mice were prepared by subcutaneously implanting Colon 26 cells into BALB/c Slc-nu/nu mice. […] Furthermore, in this example, an aqueous solution of ICG (available from Pharmaceutical and Medical Device Regulatory Science of Japan) was used as a control sample.

Data set [6] can be described thus: Blood accumulation in Colon 26 tumor model mice. The format is in vivo. The conditions noted are these: BALB/c Slc-nu/nu, mouse, intravenous, 13 nmol in terms of ICG, read-out: Blood accumulation 1 day after administration. The method, then:
as §2, §3

The test system of data set [7] is tumor site. As to the kind of experiment: Photoacoustic signal intensity at tumor site 1 day after administration, relative to ICG. The format is in vivo, mouse. The method, then: as §1
For data set [8], the system named is cerebral blood vessels. The conditions noted are these: rat, free ICG administered in blood, NPL 1; cited from earlier work.
For data set [9] the following is noted: known; cited from earlier work.

“Also recorded” adds a separate entry of the source.

With `CC1(C)C(/C=C/C=C/C=C/C=C2/N(CCCCS(=O)(=O)[O-])c3ccc4ccccc4c3C2(C)C)=[N+](CCCCS(=O)(=O)[O-])c2ccc3ccccc3c21.[Na+]` [ICG, indocyanine green], the “Hydrodynamic average particle size” value in [1] was “unmeasurable”. In data set [2], this molecule had a Relative tumor accumulation of 1.0. Also, in data set [3], the “Visualization of SLN” value is reported as “substantially no photoacoustic signal was observed; also recorded: unvisualizable”. The molecule further returned a Relative accumulation in [4] of 1.0. In addition, the Kp at 24 h in data set [5] (tumor / blood, 1 day after administration, read-out: Ratio of accumulation (tumor/blood)) was determined as 0.5. In addition, the tissue uptake at 24 h in data set [5] (tumor tissue (Colon 26), Colon 26 tumor, 24 hours, read-out: Tumor accumulation 1 day after administration) turned out to be 0.1 %ID/g. Further, in [6], the tissue uptake at 1 day worked out at 0.2 %ID/g. Also, the “Relative photoacoustic signal intensity 1 day after administration (signal intensity in administration of ICG = 1.0)” value in [7] is recorded as 1.0. In addition, in data set [8], the “time after administration at which photoacoustic signal intensity is reduced to a level equal to that of blood” value is given as “several tens of minutes”. Besides, the half-life in blood result in data set [9] is on record as “about several minutes”.
